Data as given in BindingDB's records for patent US20240376119 (Cspc Zhongqi Pharmaceutical Technology (Shijiazhuang), 2024).

Target: T1, Tyrosine-protein phosphatase non-receptor type 11 (Homo sapiens, UniProt Q06124)
T1 sequence (Q06124 whole entry): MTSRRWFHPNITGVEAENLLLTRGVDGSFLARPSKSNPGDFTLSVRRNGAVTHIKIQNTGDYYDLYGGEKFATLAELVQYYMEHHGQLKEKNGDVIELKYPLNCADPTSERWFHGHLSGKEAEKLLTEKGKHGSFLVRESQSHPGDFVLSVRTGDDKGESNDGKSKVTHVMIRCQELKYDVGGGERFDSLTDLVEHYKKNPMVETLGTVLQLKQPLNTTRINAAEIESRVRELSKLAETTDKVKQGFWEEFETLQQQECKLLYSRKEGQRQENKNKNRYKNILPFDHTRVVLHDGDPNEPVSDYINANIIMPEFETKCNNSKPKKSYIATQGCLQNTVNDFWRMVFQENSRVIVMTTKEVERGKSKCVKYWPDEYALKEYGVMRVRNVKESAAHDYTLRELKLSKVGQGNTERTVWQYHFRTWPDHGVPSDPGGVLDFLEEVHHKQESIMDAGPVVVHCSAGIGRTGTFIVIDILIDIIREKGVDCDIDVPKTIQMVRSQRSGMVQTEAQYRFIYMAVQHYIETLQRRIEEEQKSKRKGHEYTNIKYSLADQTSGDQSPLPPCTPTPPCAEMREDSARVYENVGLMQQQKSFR
Assay: Assay for the inhibitory effect on the SHP2 enzyme
Experimental: A mixed liquor of 2× working SHP2 reagent (0.4 nM) and 0.5 μM SHP-2 activated peptide (BPS bioscience #79319-2) was prepared with 1× enzyme buffer. After the above-mixed liquor was incubated at 25° C. for 60 minutes, 5 μL of activated SHP2 kinase solution was transferred with a pipettor to the compound wells and the Max control wells (Corning, #4514) of the plate. Then 5 μL of 1× kinase buffer was transferred to the Min control wells. The plate was centrifuged at 1000 rpm for 30 seconds, sealed, and incubated in a 25° C. constant-temperature incubator for 30 minutes. A substrate solution of DiFMUP (#D6567, Invitrogen™) was prepared with 1× kinase buffer, and its concentration should be 2 times as the final concentration of the assay (DiFMUP final concentration: 10 μM). 5 μL of the prepared substrate solution was transferred with an electric pipettor into each well of the ELISA plate to start the reaction. The plate was centrifuged at 1000 rpm for 30 seconds, sealed, and incubated in a 25° C. constant-temperature incubator for 60 minutes. Read the plate at the excitation/emission wavelength of 358/455 nm after the ELISA plate was placed on the Spark machine.

IC50: in the range around 20 nM
SMILES: COC(=O)c1nc(Sc2cccc(-c3ccn(C)n3)c2Cl)cnc1N1CCC2(CC1)Cc1ccccc1[C@H]2N [US20240376119, Example 19]
